One test has as its system FFD mice. The test can be described thus: Total liver cholesterol content in FFD mouse model of NASH. It is filed as in vivo, male C57BL/6 mice. As to conditions: Formula (I) 0.15% admixture in diet, Formula (III) 10 mg/kg PO QD, months 7-10. The protocol:
The following study was conducted to evaluate the efficacy of the combination of an ASK1 inhibitor and an FXR agonist in a mouse model of non-alcoholic steatohepatitis (NASH), relative to the efficacy of the individual agents alone in the model. NASH was induced in male C57BL/6 mice by chronic administration of a “fast food” diet (FFD) high in saturated fats, cholesterol and sugars for a total of 10 months, whereas lean control animals were maintained on a normal chow diet. A NASH phenotype was established in FFD mice compared to control mice by 7 months, and was characterized by obesity, hypercholesterolemia, and AST/ALT elevation; and by histological features of NASH such as hepatocellular macrovesicular steatosis and ballooning degeneration. […] Endpoint analyses included morphometric quantification of liver steatosis (% of steatotic area), liver cholesterol content, serum ALT/AST levels, serum bile acid levels, and nanostring evaluation of gene expression. […] After centrifugation, an aliquot of the organic upper layer, containing cholesterol and cholesterol esters, was analyzed. […] The peak area of the m/z 369 [M-H2O]+→161+ product ion of cholesterol was measured against the peak area of the cholesterol-D6 product ion of m/z 375 [M-H2O]+→167+. […]

A further test has as its system CDHFD/NaNO2 rats. Briefly: Liver hydroxyproline content in CDHFD/NaNO2 rat model of NASH. Type of test: in vivo, male Wistar rats. As to conditions: vs vehicle-treated CDHFD/NaNO2 rats; Formula (I) 0.2% in diet, Formula (III) 30 mg/kg/day, week 4 to 14. The method, then:
The following study was conducted to evaluate the efficacy of the combination of an ASK1 inhibitor and an FXR agonist in a rodent model of non-alcoholic steatohepatitis (NASH), relative to the efficacy of the individual agents alone in the model. NASH was induced in male Wistar rats by administration of a choline-deficient high fat diet (CDHFD) combined with the chronic administration of sodium nitrite (CDHFD/NaNO2). The model capitalizes on the “two hit theory” of NASH by inducing both metabolic dysfunction (CDHFD) and oxidative stress (NaNO2) in the liver to result in hepatic fibrosis that is similar in character and severity to that seen in patients with advanced NASH. Rats were fed CDHFD for a total of 14 weeks and were administered NaNO2 from week 4 to 14. […] The following endpoints were assessed at the completion of the 14 week study: i) liver fibrosis measured by liver hydroxyproline (OHP) content and by quantitative morphometric analysis of collagen content by Picosirius red (PSR) staining; ii) myofibroblast activation in liver sections as measured by quantitative IHC of the myofibroblast marker desmin; and, iii) Col1a1 and Timp1 in liver tissue measured by RT-PCR. […] All endpoints were assessed at the completion of the 14 week study protocol. […] The hydroxyproline content was determined photometrically by measuring the absorbance at 560 nm. […]

Structures are written as SMILES.

We go through two molecules from patent US20180133203A1, “METHODS OF TREATING LIVER DISEASE” (Gilead Sciences, Inc., priority 2016, published 2018).

In the case of `O=C(Nc1cccc(-c2nncn2C2CC2)c1)c1cc(-n2cnc(C3CC3)c2)ccn1` [Formula (I)], the “reduction of liver cholesterol content” value with FFD mice amounted to 74%. Also, in the test with CDHFD/NaNO2 rats, the “reduction of liver hydroxyproline content” value is listed as “did not significantly reduce”.
For `O=C(O)c1ccnc(N2CC(O)(c3ccc(OCc4c(-c5c(Cl)cccc5Cl)noc4C4CC4)cc3Cl)C2)c1` [Formula (III)], in the test with FFD mice, the “reduction of liver cholesterol content” value was 36%. Moreover, the “reduction of liver hydroxyproline content” value in the test with CDHFD/NaNO2 rats is reported as “did not significantly reduce”.
